# Paper PMC8205039, “Synthesis and biological evaluation of 4-phenoxy-phenyl isoxazoles as novel acetyl-CoA carboxylase inhibitors” (Journal of Enzyme Inhibition and Medicinal Chemistry, 2021)
# Tests used:
# hACC1 = target: T1, hACC1 (Homo sapiens, UniProt Q13085); test: ACC inhibitory assay (ADP-Glo luminescent ADP detection); type: biochemical; conditions: for hACC1 IRs (%): at 5 μM, HTVS candidates (Table 1); for inhibition at 0.1 µM: hACC1, 0.1 μM, read-out: IRs (%) 0.1 μM; for inhibition at 0.1 µM / inhibition at 5 µM: mean of two independent experiments (Table 2); for inhibition at 5 µM: hACC1, 5 μM, read-out: IRs (%) 5 μM; for IC50: hACC1, mean ± SD
# T1 construct: purchased BPS Biosciences 50200
# Description: The hACC1 inhibitory activity of target compounds was evaluated using the ADP-Glo^TM kinase assay according to our previous report. In brief, 4.5 µL of working solution containing recombinant ACC1 (BPS Biosciences, 50200) and 0.5 µL of diluted compound solution were added to a 384-well Optiplate plate (Perkin Elmer, 6007290, PerkinElmer, Waltham, MA, USA), and incubated at room temperature for 15 min. Then, 5 µL of substrate mixture was added to the 384-well plate to start the reaction. After incubating for 60 min at room temperature, 10 µL of ADP-Glo reagents were added to the 384-well plate, and incubated for another 40 min to deplete the remaining ATP. Finally, 20 µL of kinase detection reagents were added to the plate and incubated for 40 min to convert ADP to ATP. The luminescent signal of ATP was determined using an Envision multifunction reader (Perkin Elmer, 2104–0010, PerkinElmer, Waltham, MA, USA). The IC50 values were calculated using GraphPad Prism 5 software (GraphPad Software, La Jolla, CA, USA).
# [1] = Cell viability of non-cancerous HUVEC; type: cell-based, human; conditions: human, HUVEC cells (non-cancerous)
# Description: (§1) To investigate the selectivity of the synthesised compounds towards cancer cells, the non-cancerous HUVEC cell line was selected for testing.
# (§2) The cytotoxicity of target compounds was assessed by MTT assay. Briefly, cells were seeded in 96-well plates at a density of 2500–3000 per well and incubated for 24 h in a CO2 incubator. Then, the cells were treated with candidate compounds at seven different concentrations for 72 h. At the end of treatment, the MTT reagent (5 mg/mL) was added to determine the cell viability. After 4 h of incubation, the resulting medium was removed, and 100 µL of DMSO was added to dissolve the formed formazan. Finally, the absorbance at 550 nm was measured by a microplate reader (Varioskan LUX, […]), with the IC50 values calculated using GraphPad Prism 5 software (GraphPad Software, La Jolla, CA, USA).
# A549 cells [2] = test: MTT assay, A549; type: cell-based; conditions: Homo sapiens, single concentration of 10 µM (Figure S2), read-out: inhibitory rate, A549
# HepG2 cells [3] = test: MTT assay, HepG2; type: cell-based; conditions: Homo sapiens, 72 h, mean ± SD (n = 3)
# Description: as §2
# HepG2 cells [4] = test: MTT assay, HepG2; type: cell-based; conditions: Homo sapiens, single concentration of 10 µM (Figure S2), read-out: inhibitory rate, HepG2
# A549 cells [5] = test: MTT assay, A549; type: cell-based; conditions: Homo sapiens, 72 h, mean ± SD (n = 3)
# Description: as §2
# MDA-MB-231 cells [6] = test: MTT assay, MDA-MB-231; type: cell-based; conditions: Homo sapiens, single concentration of 10 µM (Figure S2), read-out: inhibitory rate, MDA-MB-231
# MDA-MB-231 cells [7] = test: MTT assay, MDA-MB-231; type: cell-based; conditions: Homo sapiens, 72 h, mean ± SD (n = 3)
# Description: as §2
# HUVEC = test: Cell viability of non-cancerous HUVEC; type: cell-based, human; conditions: 10 μM
# Description: as §1, §2
hACC1 IRs (%) (hACC1),inhibition at 0.1 µM (hACC1),inhibition at 5 µM (hACC1),IC50 (hACC1),hACC1 IRs (%) (hACC1; listed as D098-1432 (6a)),IC50 (HepG2 cells [3]),IC50 (A549 cells [5]),melting point,IC50 (MDA-MB-231 cells [7]),ACC inhibitory activity (in words) (hACC1; screening at 5 µM and 0.1 µM),Compound,"viability at 72 h, 10 µM [1]",inhibition at 10 µM (A549 cells [2]),inhibition at 10 µM (HepG2 cells [4]),inhibition at 10 µM (MDA-MB-231 cells [6]),IRs towards HUVEC (HUVEC)
86.83%,48.9%,87.8%,0.109 ± 0.0062 µM,,,,,,,"O=C(c1c2ccccc2cc2ccccc12)N1CCC(N2CCC[C@@H](C(=O)N3CCOCC3)C2)CC1 [CP-640186, reference compound]",,,,,
57%,18.1%,54.9%,,57.39%,1.91 ± 0.66 µM,1.4 ± 0.22 µM,152.5 to 153.5 °C,1.57 ± 0.09 µM,,"CC(=O)NC(C)c1cc(-c2ccc(Oc3ccc(OCc4ccccc4)cc3)cc2)no1 (stereo not drawn) [Compound 6a, N-(1-(3-(4-(4-(Benzyloxy)phenoxy)phenyl)isoxazol-5-yl)ethyl)acetamide]",45.8 ± 1.16%,> 80%,> 80%,> 80%,
,8.76%,26.8%,,,> 10 µM,> 10 µM,103 to 105 °C,> 10 µM,,"CC(=O)NC(C)c1cc(-c2ccc(Oc3ccc(O)cc3)cc2)no1 (stereo not drawn) [Compound 6b, N-(1-(3-(4-(4-Hydroxyphenoxy)phenyl)isoxazol-5-yl)ethyl)acetamide]",88.1 ± 3.83%,,,,
,9.89%,37.3%,,,> 10 µM,> 10 µM,127.5 to 128.5 °C,> 10 µM,,"COc1ccc(Oc2ccc(-c3cc(C(C)NC(C)=O)on3)cc2)cc1 (stereo not drawn) [Compound 6c, N-(1-(3-(4-(4-Methoxyphenoxy)phenyl)isoxazol-5-yl)ethyl)acetamide]",82.4 ± 4.85%,,,,
,12.7%,45.5%,,,> 10 µM,> 10 µM,106.5 to 107.5 °C,> 10 µM,,"CCOc1ccc(Oc2ccc(-c3cc(C(C)NC(C)=O)on3)cc2)cc1 (stereo not drawn) [Compound 6d, N-(1-(3-(4-(4-Ethoxyphenoxy)phenyl)isoxazol-5-yl)ethyl)acetamide]",89.1 ± 6.09%,,,,
,31.1%,> 60%,0.438 ± 0.0163 µM,,3.48 ± 0.74 µM,2.66 ± 0.47 µM,118.5 to 119.5 °C,1.53 ± 0.38 µM,,"CCCOc1ccc(Oc2ccc(-c3cc(C(C)NC(C)=O)on3)cc2)cc1 (stereo not drawn) [Compound 6e, N-(1-(3-(4-(4-Propoxyphenoxy)phenyl)isoxazol-5-yl)ethyl)acetamide]",83.7 ± 4.4%,,,,less than 20%
,16.7%,52.8%,,,> 10 µM,> 10 µM,124 to 126 °C,6.77 ± 0.74 µM,,"CC(=O)NC(C)c1cc(-c2ccc(Oc3ccc(OC(C)C)cc3)cc2)no1 (stereo not drawn) [Compound 6f, N-(1-(3-(4-(4-Isopropoxyphenoxy)phenyl)isoxazol-5-yl)ethyl)acetamide]",35 ± 1.66%,,,,
,8.78%,36.4%,,,> 10 µM,> 10 µM,118.5 to 119.5 °C,> 10 µM,,"CC(=O)NC(C)c1cc(-c2ccc(Oc3ccccc3)cc2)no1 (stereo not drawn) [Compound 6h, N-(1-(3-(4-Phenoxyphenyl)isoxazol-5-yl)ethyl)acetamide]",91.5 ± 2.58%,,,,
,18.5%,51.8%,,,4.21 ± 0.53 µM,6.02 ± 0.63 µM,129.5 to 130.5 °C,2.97 ± 1.49 µM,,"CCC(=O)NC(C)c1cc(-c2ccc(Oc3ccccc3)cc2)no1 (stereo not drawn) [Compound 6i, N-(1-(3-(4-Phenoxyphenyl)isoxazol-5-yl)ethyl)propionamide]",70.33 ± 0.25%,,,,
,20.8%,58.4%,,,3.48 ± 0.74 µM,2.66 ± 0.47 µM,168.5 to 169.5 °C,1.13 ± 0.38 µM,,"CC(NC(=O)C1CC1)c1cc(-c2ccc(Oc3ccccc3)cc2)no1 (stereo not drawn) [Compound 6j, N-(1-(3-(4-Phenoxyphenyl)isoxazol-5-yl)ethyl)cyclopropanecarboxamide]",59.5 ± 0.95%,,,,
,28.1%,> 60%,0.626 ± 0.0416 µM,,3.23 ± 0.89 µM,2.61 ± 0.34 µM,,0.57 ± 0.18 µM,,"CC(NC(=O)c1ccccc1)c1cc(-c2ccc(Oc3ccccc3)cc2)no1 (stereo not drawn) [Compound 6k, N-(1-(3-(4-Phenoxyphenyl)isoxazol-5-yl)ethyl)benzamide]",80 ± 2.47%,,,,less than 20%
,3.57%,16.8%,,,> 10 µM,> 10 µM,106.5 to 107.5 °C,> 10 µM,hardly observed,"CCOC(=O)NC(C)c1cc(-c2ccc(Oc3ccccc3)cc2)no1 (stereo not drawn) [Compound 6m, Ethyl (1-(3-(4-phenoxyphenyl)isoxazol-5-yl)ethyl)carbamate]",79.1 ± 4.76%,,,,
,13.4%,44.7%,,,9.04 ± 1.43 µM,5.78 ± 0.86 µM,158.5 to 159.5 °C,8.63 ± 1.14 µM,,"CCNC(=O)NC(C)c1cc(-c2ccc(Oc3ccccc3)cc2)no1 (stereo not drawn) [Compound 6n, 1-Ethyl-3-(1-(3-(4-phenoxyphenyl)isoxazol-5-yl)ethyl)urea]",83.2 ± 2.33%,,,,
,17.9%,49.8%,,,2.31 ± 0.44 µM,3.12 ± 0.19 µM,197.5 to 198.5 °C,1.9 ± 0.52 µM,,"CC(C)NC(=O)NC(C)c1cc(-c2ccc(Oc3ccccc3)cc2)no1 (stereo not drawn) [Compound 6o, 1-Isopropyl-3-(1-(3-(4-phenoxyphenyl)isoxazol-5-yl)ethyl)urea]",77.7 ± 5.67%,,,,
,21.5%,> 60%,1.05 ± 0.18 µM,,1.8 ± 0.62 µM,5.3 ± 0.46 µM,195.5 to 196.5 °C,0.84 ± 0.08 µM,,"CC(NC(=O)Nc1ccccc1)c1cc(-c2ccc(Oc3ccccc3)cc2)no1 (stereo not drawn) [Compound 6p, 1-(1-(3-(4-Phenoxyphenyl)isoxazol-5-yl)ethyl)-3-phenylurea]",85.6 ± 7.35%,,,,less than 20%
,28.3%,> 60%,0.711 ± 0.0526 µM,,2.47 ± 0.5 µM,5.73 ± 0.11 µM,161.5 to 162.5 °C,0.89 ± 0.26 µM,,"CC(NC(=O)NCc1ccccc1)c1cc(-c2ccc(Oc3ccccc3)cc2)no1 (stereo not drawn) [Compound 6q, 1-Benzyl-3-(1-(3-(4-phenoxyphenyl)isoxazol-5-yl)ethyl)urea]",84.9 ± 3.98%,,,,less than 20%
,,,,,0.67 ± 0.13 µM,0.52 ± 0.07 µM,,0.42 ± 0.09 µM,,"COc1cccc2c1C(=O)c1c(O)c3c(c(O)c1C2=O)C[C@@](O)(C(=O)CO)C[C@@H]3O[C@H]1C[C@H](N)[C@H](O)[C@H](C)O1 [DOX, doxorubicin, reference compound]",18.9 ± 4.02%,,,,
